How the values were obtained:
[1] = test system: Staphylococcus aureus; experiment: Antibacterial activity against Staphylococcus aureus ATCC 29213; assay type: functional
[2] = test system: Staphylococcus aureus; experiment: Antibacterial activity against methicillin-resistant Staphylococcus aureus ATCC 335913; assay type: functional
[3] = test system: Mycolicibacterium smegmatis; experiment: Antibacterial activity against Mycobacterium smegmatis MC2 155 ATCC; assay type: functional
[4] = test system: Staphylococcus aureus; experiment: Inhibition of MDR1-mediated […] in Staphylococcus aureus ATCC 29213 assessed as fractional inhibitory concentration index after 24 to 48 hrs in presence of ampicillin
[5] = test system: Staphylococcus aureus; experiment: Inhibition of MDR1-mediated methicillin-resistant Staphylococcus aureus ATCC 335913 assessed as fractional inhibitory concentration index after 24 to 48 hrs in presence of ampicillin
[6] = test system: Mycolicibacterium smegmatis MC2 155; experiment: Inhibition of MDR1-mediated Mycobacterium smegmatis MC2 155 ATCC assessed as fractional inhibitory concentration index after 24 to 48 hrs in presence of ampicillin
[7] = test system: Staphylococcus aureus; experiment: Inhibition of MDR1-mediated […] in Staphylococcus aureus ATCC 29213 assessed as fractional inhibitory concentration index after 24 to 48 hrs in presence of kanamycin
[8] = test system: Staphylococcus aureus; experiment: Inhibition of MDR1-mediated methicillin-resistant Staphylococcus aureus ATCC 335913 assessed as fractional inhibitory concentration index after 24 to 48 hrs in presence of kanamycin
[9] = test system: Mycolicibacterium smegmatis MC2 155; experiment: Inhibition of MDR1-mediated Mycobacterium smegmatis MC2 155 ATCC assessed as fractional inhibitory concentration index after 24 to 48 hrs in presence of kanamycin
[10] = test system: Staphylococcus aureus; experiment: Inhibition of MDR1-mediated […] in Staphylococcus aureus ATCC 29213 assessed as fractional inhibitory concentration index after 24 to 48 hrs in presence of chloramphenicol
[11] = test system: Staphylococcus aureus; experiment: Inhibition of MDR1-mediated methicillin-resistant Staphylococcus aureus ATCC 335913 assessed as fractional inhibitory concentration index after 24 to 48 hrs in presence of chloramphenicol
[12] = test system: Mycolicibacterium smegmatis MC2 155; experiment: Inhibition of MDR1-mediated Mycobacterium smegmatis MC2 155 ATCC assessed as fractional inhibitory concentration index after 24 to 48 hrs in presence of chloramphenicol
[13] = test system: Staphylococcus aureus; experiment: Inhibition of MDR1-mediated […] in Staphylococcus aureus ATCC 29213 assessed as fractional inhibitory concentration index after 24 to 48 hrs in presence of ciprofloxacin
[14] = test system: Staphylococcus aureus; experiment: Inhibition of MDR1-mediated methicillin-resistant Staphylococcus aureus ATCC 335913 assessed as fractional inhibitory concentration index after 24 to 48 hrs in presence of ciprofloxacin
[15] = test system: Mycolicibacterium smegmatis MC2 155; experiment: Inhibition of MDR1-mediated Mycobacterium smegmatis MC2 155 ATCC assessed as fractional inhibitory concentration index after 24 to 48 hrs in presence of ciprofloxacin
[16] = test system: Staphylococcus aureus; experiment: Inhibition of MDR1 in Staphylococcus aureus ATCC 29213 assessed as increase in accumulation of ampicillin by EtBr efflux using flow cytometer
[17] = test system: Staphylococcus aureus; experiment: Inhibition of MDR1 in methicillin-resistant Staphylococcus aureus ATCC 335913 assessed as increase in accumulation of ampicillin by EtBr efflux using flow cytometer
[18] = test system: Mycolicibacterium smegmatis MC2 155; experiment: Inhibition of MDR1 in Mycobacterium smegmatis ATCC MC2155 assessed as increase in accumulation of ampicillin by EtBr efflux using flow cytometer
[19] = test system: Staphylococcus aureus; experiment: Inhibition of MDR1 in Staphylococcus aureus ATCC 29213 assessed as increase in accumulation of kanamycin by EtBr efflux using flow cytometer
[20] = test system: Staphylococcus aureus; experiment: Inhibition of MDR1 in methicillin-resistant Staphylococcus aureus ATCC 335913 assessed as increase in accumulation of kanamycin by EtBr efflux using flow cytometer
[21] = test system: Mycolicibacterium smegmatis MC2 155; experiment: Inhibition of MDR1 in Mycobacterium smegmatis ATCC MC2155 assessed as increase in accumulation of kanamycin by EtBr efflux using flow cytometer
[22] = test system: Staphylococcus aureus; experiment: Inhibition of MDR1 in Staphylococcus aureus ATCC 29213 assessed as increase in accumulation of chloramphenicol by EtBr efflux using flow cytometer
[23] = test system: Staphylococcus aureus; experiment: Inhibition of MDR1 in methicillin-resistant Staphylococcus aureus ATCC 335913 assessed as increase in accumulation of chloramphenicol by EtBr efflux using flow cytometer
[24] = test system: Mycolicibacterium smegmatis MC2 155; experiment: Inhibition of MDR1 in Mycobacterium smegmatis ATCC MC2155 assessed as increase in accumulation of chloramphenicol by EtBr efflux using flow cytometer
[25] = test system: Staphylococcus aureus; experiment: Inhibition of MDR1 in Staphylococcus aureus ATCC 29213 assessed as increase in accumulation of ciprofloxacin by EtBr efflux using flow cytometer
[26] = test system: Staphylococcus aureus; experiment: Inhibition of MDR1 in methicillin-resistant Staphylococcus aureus ATCC 335913 assessed as increase in accumulation of ciprofloxacin by EtBr efflux using flow cytometer
[27] = test system: Mycolicibacterium smegmatis MC2 155; experiment: Inhibition of MDR1 in Mycobacterium smegmatis ATCC MC2155 assessed as increase in accumulation of ciprofloxacin by EtBr efflux using flow cytometer

Cc1ccc(-c2cc(C(F)(F)F)nn2-c2ccc(S(N)(=O)=O)cc2)cc1 [CELECOXIB]
MIC [1]: > 100 µM
MIC [2]: > 100 µM
MIC [3]: > 100 µM
fractional inhibitory concentration index (FICI) [4]: 0.281
fractional inhibitory concentration index (FICI) [5]: 0.312
fractional inhibitory concentration index (FICI) [6]: 0.0665
fractional inhibitory concentration index (FICI) [7]: 0.531
fractional inhibitory concentration index (FICI) [8]: 0.312
fractional inhibitory concentration index (FICI) [9]: 0.312
fractional inhibitory concentration index (FICI) [10]: 0.281
fractional inhibitory concentration index (FICI) [11]: 0.312
fractional inhibitory concentration index (FICI) [12]: 0.562
fractional inhibitory concentration index (FICI) [13]: 0.281
fractional inhibitory concentration index (FICI) [14]: 0.312
fractional inhibitory concentration index (FICI) [15]: 0.188
inhibition [16]: Dose-dependent effect
inhibition [17]: Dose-dependent effect
inhibition [18]: Dose-dependent effect
inhibition [19]: Dose-dependent effect
inhibition [20]: Dose-dependent effect
inhibition [21]: Dose-dependent effect
inhibition [22]: Dose-dependent effect
inhibition [23]: Dose-dependent effect
inhibition [24]: Dose-dependent effect
inhibition [25]: Dose-dependent effect
inhibition [26]: Dose-dependent effect
inhibition [27]: Dose-dependent effect

O=C(N[C@H](CO)[C@H](O)c1ccc([N+](=O)[O-])cc1)C(Cl)Cl [CHLORAMPHENICOL]
MIC [1]: 5 µg/mL
MIC [2]: 100 µg/mL
MIC [3]: 10 µg/mL

CC1(C)S[C@@H]2[C@H](NC(=O)[C@H](N)c3ccccc3)C(=O)N2[C@H]1C(=O)O [AMPICILLIN]
MIC [1]: 5 µg/mL
MIC [2]: 200 µg/mL
MIC [3]: 250 µg/mL

O=C(O)c1cn(C2CC2)c2cc(N3CCNCC3)c(F)cc2c1=O [CIPROFLOXACIN]
MIC [1]: 0.25 µg/mL
MIC [2]: 0.25 µg/mL
MIC [3]: 0.5 µg/mL

NC[C@H]1O[C@H](O[C@H]2[C@H](O)[C@@H](O[C@H]3O[C@H](CO)[C@@H](O)[C@H](N)[C@H]3O)[C@H](N)C[C@@H]2N)[C@H](O)[C@@H](O)[C@@H]1O [KANAMYCIN]
MIC [1]: 10 µg/mL
MIC [2]: 100 µg/mL
MIC [3]: 0.5 µg/mL
